Legend:
[1] = Acute toxicity (LD50), intravenous injection into the vein of the tail; format: in vivo; settings: mouse, in vivo, iv
Text: Acute toxicity (LD50) in white mice after
intravenous injection into the vein of the […]

[2] = system: Staph. aureus 133; test: Surviving mice after intraperitoneal infection and subcutaneous therapy; format: in vivo, white mice, CF1 strain; settings: 2 × 200 units/mouse s.c.
Protocol: (§1) The experiments on animals (see Table 3) were carried out with white mice of the CF1 strain. The infection took place intraperitoneally with the particular bacterium indicated.

[3] = system: Staph. aureus 133; test: MIC, liquid medium test tube series dilution test; format: cell-based, Staphylococcus aureus; settings: Staph. aureus 133, 24 hours, 37°C
In short: (§2)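 Tube dilution, liquid complete medium, 37°C/24 h; MIC = non-turbid tube; units/ml.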

[4] = system: Psdm. aerug. Bonn; test: MIC, liquid medium test tube series dilution test; format: cell-based, Pseudomonas aerug.; settings: 24 hours, 37°C
In short: as §2

[5] = system: Psdm. aerug. Walter; test: MIC, liquid medium test tube series dilution test; format: cell-based, Pseudomonas aerug.; settings: 24 hours, 37°C
In short: as §2

[6] = system: Klebsiella 63; test: MIC, liquid medium test tube series dilution test; format: cell-based; settings: Klebsiella 63, 24 hours, 37°C
In short: as §2

[7] = system: Streptoc. faec. ATCC 9790; test: MIC, liquid medium test tube series dilution test; format: cell-based; settings: Strep. faec. (Enterococcus) ATCC 9790, 24 hours, 37°C
In short: as §2

[8] = system: E. coli A 261; test: MIC, liquid medium test tube series dilution test; format: cell-based; settings: E. coli A 261, 24 hours, 37°C
In short: as §2

[9] = system: E. coli 183/58; test: MIC, liquid medium test tube series dilution test; format: cell-based; settings: E. coli 183/58, 24 hours, 37°C
In short: as §2

[10] = system: Klebsiella K 10; test: MIC, liquid medium test tube series dilution test; format: cell-based; settings: Klebsiella K 10, 24 hours, 37°C
In short: as §2

[11] = system: E. coli C 165; test: MIC, liquid medium test tube series dilution test; format: cell-based; settings: E. coli C 165, 24 hours, 37°C
In short: as §2

[12] = system: E. coli 14; test: MIC, liquid medium test tube series dilution test; format: cell-based; settings: E. coli 14, 24 hours, 37°C
In short: as §2

[13] = system: Proteus vulgaris 1017; test: Reduction in number of bacteria/ml of blood after subcutaneous administration; format: in vivo, mouse
Text: Reduction in number of bacteria/ml of blood after subcutaneous
administration of Penicillin No. 83.
Infection took place intraperitoneally with Proteus vulgaris 1017, 8
× 10^5 /mouse; ampicillin-resistant.

[14] = system: Proteus vulg. 3400; test: MIC, liquid medium test tube series dilution test; format: cell-based, Proteus vulgaris; settings: Proteus vulg. 3400, 24 hours, 37°C
In short: as §2

[15] = system: Proteus vulg. 1017; test: MIC, liquid medium test tube series dilution test; format: cell-based, Proteus vulgaris; settings: Proteus vulg. 1017, 24 hours, 37°C
In short: as §2

[16] = Acid stability; format: physicochemical; settings: pH 1 where stated
[17] = system: Psdm. aerug. Walter; test: Surviving mice after intraperitoneal infection and subcutaneous therapy; format: in vivo, white mice, CF1 strain; settings: compared with carbenicillin
Protocol: as §1

[18] = system: Staph. aureus 1777 E; test: MIC, liquid medium test tube series dilution test; format: cell-based, Staphylococcus aureus; settings: 24 hours, 37°C
In short: as §2

[19] = system: Klebsiella; settings: background statement; cited from earlier work
[20] = system: Pseudomon. aer. F 41; test: Surviving mice after intraperitoneal infection and subcutaneous therapy; format: in vivo, white mice, CF1 strain; settings: 30 min before and 2, 4, 6 hours after infection, 1st day
Protocol: as §1

[21] = system: E. coli; test: MIC, liquid medium test tube series dilution test; format: cell-based; settings: strain not given, 24 hours
In short: as §2

SMILES	LD50 [1] [mg/kg]	Number of surviving mice ([2]; 1 day) [%]	Number of surviving mice ([2]; 2 days) [%]	Number of surviving mice ([2]; 3 days) [%]	Number of surviving mice ([2]; 5 days) [%]	MIC [3] [units/ml]	MIC [4]	MIC [5]	MIC [6]	MIC [7]	MIC [8]	MIC [9] [units/ml]	MIC [10]	MIC [11] [units/ml]	MIC [12]	MIC [14]	MIC [15]	MIC [18]	Effectiveness against Klebsiella infections [19]	other results
COc1ccc(C(=O)N(C)C(=O)N[C@@H](C(=O)N[C@@H]2C(=O)N3[C@@H]2SC(C)(C)[C@@H]3C(=O)O)c2ccccc2)cc1[N+](=O)[O-] [Example 83, Sodium D(-)-α-(3-[4-methoxy-3-nitrobenzoyl]-3-methyl-ureido)-benzylpenicillin]	> 1200	80	70	70	70	< 0.78	50 units/ml	100 units/ml	50 units/ml	100 units/ml	400 units/ml	6.25	25 units/ml	6.25	3.12 units/ml	6.25 units/ml	25 units/ml			Number of bacteria/ml of blood ([13]; 1 × 50,000 units/kg s.c. 30 min after infection, 30 mins.): 9 × 10^3 bacteria/ml of blood; Number of bacteria/ml of blood ([13]; 1 × 50,000 units/kg s.c., 60 mins.): 7 × 10^3 bacteria/ml of blood; Number of bacteria/ml of blood ([13]; 1 × 50,000 units/kg s.c., 90 mins.): 2 × 10^3 bacteria/ml of blood; Number of bacteria/ml of blood ([13]; 1 × 50,000 units/kg s.c., 120 mins.): 1 × 10^3 bacteria/ml of blood; Number of bacteria/ml of blood ([13]; 1 × 50,000 units/kg s.c., 150 mins.): 3 × 10^3 bacteria/ml of blood; Number of bacteria/ml of blood ([13]; 1 × 50,000 units/kg s.c., 180 mins.): 8 × 10^3 bacteria/ml of blood; Number of bacteria/ml of blood ([13]; 50,000 units/kg s.c. after 30 and 90 min, 60 mins.): 8 × 10^3 bacteria/ml of blood; Number of bacteria/ml of blood ([13]; 50,000 units/kg s.c. after 30 and 90 min, 90 mins.): ~5 × 10^3 bacteria/ml of blood; Number of bacteria/ml of blood ([13]; 50,000 units/kg s.c. after 30 and 90 min, 120 mins.): 2 × 10^2 bacteria/ml of blood; Number of bacteria/ml of blood ([13]; 50,000 units/kg s.c. after 30 and 90 min, 150 mins.): < 10^1 bacteria/ml of blood; Number of bacteria/ml of blood ([13]; 50,000 units/kg s.c. after 30 and 90 min, 180 mins.): < 10^1 bacteria/ml of blood; Number of bacteria/ml of blood ([13]; 50,000 units/kg s.c. after 30 min and further 50,000 units/kg after 90 min, 30 mins.): 2 × 10^4 bacteria/ml of blood; Stability to acid [16]: remain microbiologically active at pH 1 for over one hour
CN(C(=O)N[C@@H](C(=O)N[C@@H]1C(=O)N2[C@@H]1SC(C)(C)[C@@H]2C(=O)O)c1ccccc1)C(=O)c1ccccc1Cl [Example 107]						< 0.8	0.8-4 units/ml	0.8-4 units/ml	4-20 units/ml	4-20 units/ml		< 0.8	~ 4 units/ml	< 0.8	< 0.8 units/ml	0.8-4 units/ml	0.8-4 units/ml	20-100 units/ml		Effectiveness in animal experiments against Pseudomonas aerug. Walter [17]: better than carbenicillin
CC1(C)S[C@@H]2[C@H](NC(=O)[C@H](N)c3ccccc3)C(=O)N2[C@H]1C(=O)O [Ampicillin, D(-)-α-Aminobenzylpenicillin, reference compound]		100	100	100	100	< 1.0	200 units/ml	200 units/ml	100-200 units/ml		> 400 units/ml	200	100-200 units/ml	6.25	~ 0.8 units/ml	> 400 units/ml	400 units/ml	200 units/ml	not capable of effectively combating Klebsiella infections	
CC1(C)S[C@@H]2[C@H](NC(=O)C(C(=O)O)c3ccccc3)C(=O)N2[C@H]1C(=O)O (some centres unmarked) [Carbenicillin]	2700																		only effective in man in the case of infections by Klebsiella bacteria if it is administered in continuing high doses	Number of surviving mice ([20]; Dose E = 50,000 units/kg): 0%; Number of surviving mice ([20]; Dose F = 75,000 units/kg): 20%; Number of surviving mice ([20]; Dose G = 150,000 units/kg): 70%; Number of surviving mice ([20]; Dose H = 200,000 units/kg): 70%
Cc1ccc(C(=O)N(C)C(=O)N[C@@H](C(=O)N[C@@H]2C(=O)N3[C@@H]2SC(C)(C)[C@@H]3C(=O)O)c2ccccc2)cc1 [Example 73, Sodium D(-)-α-(3-p-methylbenzoyl-3-methyl-ureido)-benzylpenicillin]		80	70	50	40	0.78	12.5 units/ml	~ 50 units/ml	12.5-25 units/ml	50-100 units/ml	200-400 units/ml	1.56	25-50 units/ml	6.25	3.12 units/ml	12.5 units/ml	6.25 units/ml			Effectiveness (MIC) [21]: 312 units/ml

Reference: patent publication US3974140A, “Ureidoacetamido-penicillins” (Bayer Aktiengesellschaft, priority 1970, dated 1976)
